Laboratory results published in PubChem BioAssay (NCI).
Several values for one entry are separate records, joined by “and”; a condition that tells them apart may be missing. Equal entries are not always repeated.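 96-well plates; 48 h exposure; 5 concentrations. Endpoints by linear interpolation between flanking doses. Not reached: highest tested concentration assigned. GI50 = concentration required for 50% inhibition of growth. TGI marks complete inhibition of growth.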

Legend:
Assay in all cases: NCI tumour cell line growth inhibition, 48 h
COLO 205 colon = system: COLO 205 colon
SW-620 colon = system: SW-620 colon
DLD-1 colon = system: DLD-1 colon
HCT-15 colon = system: HCT-15 colon
A549 NSCLC = system: A549 NSCLC
SN12C renal = system: SN12C renal
OVCAR-4 ovarian = system: OVCAR-4 ovarian
HOP-92 NSCLC = system: HOP-92 NSCLC
SK-MEL-28 melanoma = system: SK-MEL-28 melanoma
SF-539 CNS = system: SF-539 CNS
HOP-62 NSCLC = system: HOP-62 NSCLC
NCI/ADR-RES ovarian = system: NCI/ADR-RES ovarian
UACC-62 melanoma = system: UACC-62 melanoma
SN12K1 renal = system: SN12K1 renal
SK-MEL-2 melanoma = system: SK-MEL-2 melanoma
IGROV1 ovarian = system: IGROV1 ovarian
LOX IMVI melanoma = system: LOX IMVI melanoma
K-562 leukemia = system: K-562 leukemia
DMS 273 small cell lung = system: DMS 273 small cell lung
OVCAR-3 ovarian = system: OVCAR-3 ovarian
HL-60(TB) leukemia = system: HL-60(TB) leukemia
HOP-18 NSCLC = system: HOP-18 NSCLC
CCRF-CEM leukemia = system: CCRF-CEM leukemia
KM12 colon = system: KM12 colon
NCI-H522 lung = system: NCI-H522 lung
NCI-H226 lung = system: NCI-H226 lung
A498 renal = system: A498 renal
DMS 114 small cell lung = system: DMS 114 small cell lung
OVCAR-8 ovarian = system: OVCAR-8 ovarian
SF-268 CNS = system: SF-268 CNS
MALME-3M melanoma = system: MALME-3M melanoma
U251 CNS = system: U251 CNS
XF 498 CNS = system: XF 498 CNS
P388 leukemia = system: P388 leukemia
UO-31 renal = system: UO-31 renal
MCF7 breast = system: MCF7 breast
SF-295 CNS = system: SF-295 CNS
NCI-H23 lung = system: NCI-H23 lung
HCT-116 colon = system: HCT-116 colon
MOLT-4 leukemia = system: MOLT-4 leukemia
EKVX NSCLC = system: EKVX NSCLC
M19-MEL melanoma = system: M19-MEL melanoma
UACC-257 melanoma = system: UACC-257 melanoma
SNB-75 CNS = system: SNB-75 CNS
OVCAR-5 ovarian = system: OVCAR-5 ovarian
NCI-H460 lung = system: NCI-H460 lung
SK-OV-3 ovarian = system: SK-OV-3 ovarian
SNB-78 CNS = system: SNB-78 CNS
HT29 colon = system: HT29 colon
HCC-2998 colon = system: HCC-2998 colon
SNB-19 CNS = system: SNB-19 CNS
SK-MEL-5 melanoma = system: SK-MEL-5 melanoma
RPMI-8226 leukemia = system: RPMI-8226 leukemia
CAKI-1 renal = system: CAKI-1 renal

## C=C1CCCC(C)(C)[C@@H]1CC/C(C)=C/Cn1c2cccc(=O)c-2nc2ccccc21
COLO 205 colon
  GI50: 23.8 µM
SW-620 colon
  GI50: 5.87 µM
DLD-1 colon
  GI50: 4.86 µM
HCT-15 colon
  GI50: 4.34 µM
A549 NSCLC
  GI50: 20.9 µM
SN12C renal
  GI50: 5.57 µM
OVCAR-4 ovarian
  GI50: 6.28 µM
HOP-92 NSCLC
  GI50: 22.7 µM
SK-MEL-28 melanoma
  GI50: 1.82 µM
  TGI: 3.46 µM and 17.6 µM
SF-539 CNS
  GI50: 3.01 µM
  TGI: 9.57 µM and 3.55 µM
HOP-62 NSCLC
  TGI: 9.37 µM
NCI/ADR-RES ovarian
  GI50: 4.23 µM
UACC-62 melanoma
  TGI: 2.47 µM
SN12K1 renal
  GI50: 2.89 µM
  TGI: 15.5 µM and 13.2 µM
SK-MEL-2 melanoma
  GI50: 6.62 µM
IGROV1 ovarian
  GI50: 2.71 µM
  TGI: 8.87 µM and 6.11 µM
LOX IMVI melanoma
  TGI: 2.45 µM
K-562 leukemia
  TGI: > 100 µM
DMS 273 small cell lung
  GI50: 3.02 µM
  TGI: 24.1 µM and 3.29 µM
OVCAR-3 ovarian
  TGI: 18.9 µM and 12.5 µM
HL-60(TB) leukemia
  TGI: 0.354 µM
HOP-18 NSCLC
  GI50: 37.2 µM
  TGI: > 100 µM and 18.2 µM
CCRF-CEM leukemia
  TGI: 13 µM
KM12 colon
  GI50: 7.96 µM
  TGI: 45.4 µM and 10.4 µM
NCI-H522 lung
  GI50: 6.35 µM
  TGI: > 100 µM
NCI-H226 lung
  GI50: 21.2 µM
  TGI: > 100 µM and 21.6 µM
A498 renal
  GI50: 7.76 µM
  TGI: 70.2 µM and 14.1 µM
DMS 114 small cell lung
  TGI: 2.3 µM
OVCAR-8 ovarian
  GI50: 4.28 µM
SF-268 CNS
  TGI: 3.71 µM
MALME-3M melanoma
  GI50: 5.76 µM
  TGI: > 100 µM
U251 CNS
  GI50: 10.7 µM
XF 498 CNS
  GI50: 2.8 µM
P388 leukemia
  TGI: > 100 µM
UO-31 renal
  GI50: 3.91 µM
MCF7 breast
  GI50: 4.92 µM
  TGI: > 100 µM and 10.4 µM
SF-295 CNS
  GI50: 3.93 µM
  TGI: 26.9 µM and 4.16 µM
NCI-H23 lung
  GI50: 5.39 µM
HCT-116 colon
  GI50: 2.55 µM
  TGI: 6.62 µM and 2.73 µM
MOLT-4 leukemia
  GI50: 5.55 µM
  TGI: 70.7 µM and 9.78 µM
EKVX NSCLC
  TGI: 11.4 µM
M19-MEL melanoma
  GI50: 3.07 µM
UACC-257 melanoma
  GI50: 2.83 µM
  TGI: 9.02 µM and 4.68 µM
SNB-75 CNS
  GI50: 2.09 µM
  TGI: 4.54 µM and 5.04 µM
OVCAR-5 ovarian
  GI50: 27.1 µM
NCI-H460 lung
  GI50: 14 µM
SK-OV-3 ovarian
  TGI: 10.7 µM
SNB-78 CNS
  GI50: 4.35 µM
  TGI: > 100 µM
HT29 colon
  GI50: 3.82 µM
  TGI: 27.4 µM and 3.29 µM
HCC-2998 colon
  TGI: 4.53 µM
SNB-19 CNS
  GI50: 9.54 µM
  TGI: 60.2 µM and 15.8 µM
SK-MEL-5 melanoma
  TGI: 13.8 µM
RPMI-8226 leukemia
  GI50: 3.06 µM
  TGI: 9.68 µM and 17.8 µM
CAKI-1 renal
  TGI: 10.7 µM
